Measured values published in US9573930B2 (Quanticel Pharmaceuticals, Inc., priority 2014, dated 2017).

biological target: full-length human LSD1 (Homo sapiens (Human), UniProt O60341); assay: In vitro enzyme inhibition assay LSD-1 (TR-FRET); format: biochemical; conditions: H3K4me1-biotin peptide
Protocol: This assay determines the ability of a test compound to inhibit LSD1 demethylase activity.
The enzymatic assay of LSD1 activity is based on Time Resolved-Fluorescence Resonance Energy Transfer (TR-FRET) detection.
The ability of the compounds disclosed herein to inhibit LSD1 activity was quantified and the respective IC50 value was determined.

Structure (SMILES) | IC50 [nM]
Cn1c(N2CCC(N)CC2)nc(-c2ccc(C#N)cc2)c(-c2ccc(C(N)=O)c(F)c2)c1=O [Example 41, 4-[2-(4-aminopiperidyl)-6-(4-cyanophenyl)-3-methyl-4-oxo(3-hydropyrimidin-5-yl)]-2-fluorobenzamide] | < 100
Cn1c(N2CCC(N)CC2)nc(-c2ccc(C#N)c(F)c2)c(-c2ccc3c(c2)CNC3=O)c1=O [Example 42, 4-[2-(4-amino-piperidin-1-yl)-1-methyl-6-oxo-5-(1-oxo-2,3-dihydro-1H-isoindol-5-yl)-1,6-dihydro-pyrimidin-4-yl]-2-fluoro-benzonitrile] | < 100
COc1ccc(-c2c(-c3ccc(C#N)cc3)nc(NC[C@H]3CCNC3)n(C)c2=O)cc1F [Example 44, 4-{5-(3-fluoro-4-methoxy-phenyl)-1-methyl-6-oxo-2-[(3S)-(pyrrolidin-3-ylmethyl)-amino]-1,6-dihydro-pyrimidin-4-yl}-benzonitrile] | < 100
COc1ccc(-c2c(-c3ccc(C#N)cc3)nc(NC[C@@H]3CCNC3)n(C)c2=O)cc1F [Example 45, 4-{5-(3-fluoro-4-methoxy-phenyl)-1-methyl-6-oxo-2-[(3R)-(pyrrolidin-3-ylmethyl)-amino]-1,6-dihydro-pyrimidin-4-yl}-benzonitrile] | < 100
COc1ccc(-c2c(-c3ccc(C#N)c(F)c3)nc(N3CCCNCC3)n(C)c2=O)cc1F [Example 46, 4-[2-[1,4]diazepan-1-yl-5-(3-fluoro-4-methoxy-phenyl)-1-methyl-6-oxo-1,6-dihydro-pyrimidin-4-yl]-2-fluoro-benzonitrile] | < 100
COc1ccc(-c2c(-c3ccc(C#N)c(F)c3)nc(N3CCNCC3)n(C)c2=O)cc1F [Example 47, 2-fluoro-4-[5-(3-fluoro-4-methoxy-phenyl)-1-methyl-6-oxo-2-piperazin-1-yl-1,6-dihydro-pyrimidin-4-yl]-benzonitrile] | < 100
CN(C)c1ncc(-c2c(-c3ccc(C#N)c(F)c3)nc(N3CCC(N)CC3)n(C)c2=O)cn1 [Example 49, 4-[2-(4-amino-piperidin-1-yl)-2′-dimethylamino-1-methyl-6-oxo-1,6-dihydro-[5,5′]bipyrimidinyl-4-yl]-2-fluoro-benzonitrile] | < 100
CNC(=O)c1ccc(-c2c(-c3ccc(C#N)c(F)c3)nc(N3CCC(N)CC3)n(C)c2=O)cn1 [Example 50, 5-[2-(4-amino-piperidin-1-yl)-4-(4-cyano-3-fluoro-phenyl)-1-methyl-6-oxo-1,6-dihydro-pyrimidin-5-yl]-pyridine-2-carboxylic acid methylamide] | < 100
COc1ccc(-c2c(-c3ccc(C#N)c(F)c3)nc(NC[C@H]3CCNC3)n(C)c2=O)cc1 [Example 51, 2-fluoro-4-{5-(4-methoxy-phenyl)-1-methyl-6-oxo-2-[(3S)-(pyrrolidin-3-ylmethyl)-amino]-1,6-dihydro-pyrimidin-4-yl}-benzonitrile] | < 100
COc1ccc(-c2c(-c3ccc(C#N)c(F)c3)nc(NC[C@@H]3CCNC3)n(C)c2=O)cc1 [Example 52, 2-luoro-4-{5-(4-methoxy-phenyl)-1-methyl-6-oxo-2-[(3R)-(pyrrolidin-3-ylmethyl)-amino]-1,6-dihydro-pyrimidin-4-yl}-benzonitrile] | < 100
COc1ccc(-c2c(-c3ccc(C#N)c(F)c3)nc(NC3CCNCC3)n(C)c2=O)cc1 [Example 53, 2-fluoro-4-[5-(4-methoxy-phenyl)-1-methyl-6-oxo-2-(piperidin-4-ylamino)-1,6-dihydro-pyrimidin-4-yl]-benzonitrile] | < 100
COc1ccc(-c2c(-c3ccc(C#N)c(F)c3)nc(N(C)C[C@H]3CCNC3)n(C)c2=O)cc1 [Example 54, 2-fluoro-4-[5-(4-methoxy-phenyl)-1-methyl-2-(methyl-(3S)-pyrrolidin-3-ylmethyl-amino)-6-oxo-1,6-dihydro-pyrimidin-4-yl]-benzonitrile] | < 100
COc1ccc(-c2c(-c3ccc(C#N)c(F)c3)nc(N(C)C3CCNCC3)n(C)c2=O)cc1 [Example 55, 2-fluoro-4-[5-(4-methoxy-phenyl)-1-methyl-2-(methyl-piperidin-4-yl-amino)-6-oxo-1,6-dihydro-pyrimidin-4-yl]-benzonitrile] | < 100
CN(C)c1ccc(-c2c(-c3ccc(C#N)c(F)c3)nc(N3CCC(N)CC3)n(C)c2=O)cn1 [Example 57, 4-[2-(4-amino-piperidin-1-yl)-5-(6-dimethylamino-pyridin-3-yl)-1-methyl-6-oxo-1,6-dihydro-pyrimidin-4-yl]-2-fluoro-benzonitrile] | < 100
CNC1CCN(c2nc(-c3ccc(C#N)c(F)c3)c(-c3ccc(OC)nc3)c(=O)n2C)CC1 [Example 58, 2-fluoro-4-[5-(6-methoxy-pyridin-3-yl)-1-methyl-2-(4-methylamino-piperidin-1-yl)-6-oxo-1,6-dihydro-pyrimidin-4-yl]-benzonitrile] | < 100
CN(C)c1ccc(-c2c(-c3ccc(C#N)c(F)c3)nc(N3CCC(N)CC3)n(C)c2=O)cc1 [Example 59, 4-[2-(4-amino-piperidin-1-yl)-5-(4-dimethylamino-phenyl)-1-methyl-6-oxo-1,6-dihydro-pyrimidin-4-yl]-2-fluoro-benzonitrile] | < 100

Structure (SMILES) | IC50 [nM]
Cn1c(N2CCC(N)CC2)nc(-c2ccc(C#N)c(F)c2)c(-c2ccc(N3CCCC3)nc2)c1=O [Example 60, 4-[2-(4-amino-piperidin-1-yl)-1-methyl-6-oxo-5-(6-pyrrolidin-1-yl-pyridin-3-yl)-1,6-dihydro-pyrimidin-4-yl]-2-fluoro-benzonitrile] | < 100
COc1ccc(-c2c(-c3ccc(C#N)c(F)c3)nc(N3CCCNCC3)n(C)c2=O)cn1 [Example 61, 4-[2-[1,4]diazepan-1-yl-5-(6-methoxy-pyridin-3-yl)-1-methyl-6-oxo-1,6-dihydro-pyrimidin-4-yl]-2-fluoro-benzonitrile] | < 100
COc1ccc(-c2c(-c3ccc(C#N)cc3)nc(N3CCCNCC3)n(C)c2=O)cn1 [Example 62] | < 100
CN(C)c1ccc(-c2c(-c3ccc(C#N)c(F)c3)nc(N3CCCNCC3)n(C)c2=O)cn1 [Example 63, 4-[2-[1,4]diazepan-1-yl-5-(6-dimethylamino-pyridin-3-yl)-1-methyl-6-oxo-1,6-dihydro-pyrimidin-4-yl]-2-fluoro-benzonitrile] | < 100
COc1ccc(-c2c(-c3ccc(C#N)c(F)c3)nc(N3CC(N)C3)n(C)c2=O)cc1 [Example 64, 4-[2-(3-amino-azetidin-1-yl)-5-(4-methoxy-phenyl)-1-methyl-6-oxo-1,6-dihydro-pyrimidin-4-yl]-2-fluoro-benzonitrile] | < 100
CNC1CCN(c2nc(-c3ccc(C#N)c(F)c3)c(-c3ccc4nn(C)cc4c3)c(=O)n2C)CC1 [Example 65, 2-fluoro-4-[1-methyl-2-(4-methylamino-piperidin-1-yl)-5-(2-methyl-2H-indazol-5-yl)-6-oxo-1,6-dihydro-pyrimidin-4-yl]-benzonitrile] | < 100
Cn1cc2cc(-c3c(-c4ccc(C#N)c(F)c4)nc(N4CCCNCC4)n(C)c3=O)ccc2n1 [Example 66, 4-[2-[1,4]diazepan-1-yl-1-methyl-5-(2-methyl-2H-indazol-5-yl)-6-oxo-1,6-dihydro-pyrimidin-4-yl]-2-fluoro-benzonitrile] | < 100
CN(C)c1ccc(-c2c(-c3ccc(C#N)cc3)nc(N3CCCNCC3)n(C)c2=O)cn1 [Example 67, 4-[2-[1,4]diazepan-1-yl-5-(6-dimethylamino-pyridin-3-yl)-1-methyl-6-oxo-1,6-dihydro-pyrimidin-4-yl]-benzonitrile] | < 100
Cn1c(N2CCC(N)CC2)nc(-c2ccc(C#N)c(F)c2)c(-c2ccc(N3CCOCC3)nc2)c1=O [Example 68, 4-[2-(4-amino-piperidin-1-yl)-1-methyl-5-(6-morpholin-4-yl-pyridin-3-yl)-6-oxo-1,6-dihydro-pyrimidin-4-yl]-2-fluoro-benzonitrile] | < 100
COc1ccc(-c2c(-c3ccc(C#N)c(F)c3)nc(N3CC(CN)C3)n(C)c2=O)cc1 [Example 69, 4-[2-(3-aminomethyl-azetidin-1-yl)-5-(4-methoxy-phenyl)-1-methyl-6-oxo-1,6-dihydro-pyrimidin-4-yl]-2-fluoro-benzonitrile] | < 100
CNCC1CN(c2nc(-c3ccc(C#N)c(F)c3)c(-c3ccc(OC)cc3)c(=O)n2C)C1 [Example 70, 2-fluoro-4-[5-(4-methoxy-phenyl)-1-methyl-2-(3-methylaminomethyl-azetidin-1-yl)-6-oxo-1,6-dihydro-pyrimidin-4-yl]-benzonitrile] | < 100
CN(C)C1CCN(c2nc(-c3ccc(C#N)c(F)c3)c(-c3ccc4nn(C)cc4c3)c(=O)n2C)CC1 [Example 71, 4-[2-(4-dimethylamino-piperidin-1-yl)-1-methyl-5-(2-methyl-2H-indazol-5-yl)-6-oxo-1,6-dihydro-pyrimidin-4-yl]-2-fluoro-benzonitrile] | < 100
CN(C)C1CCN(c2nc(-c3ccc(C#N)c(F)c3)c(-c3ccc4c(cnn4C)c3)c(=O)n2C)CC1 [Example 72, 4-[2-(4-dimethylamino-piperidin-1-yl)-1-methyl-5-(1-methyl-1H-indazol-5-yl)-6-oxo-1,6-dihydro-pyrimidin-4-yl]-2-fluoro-benzonitrile] | < 100
Cn1c(N2CCC(N)CC2)nc(-c2ccc(C#N)c(F)c2)c(-c2ccc3[nH]ccc3c2)c1=O [Example 73, 4-[2-(4-amino-piperidin-1-yl)-5-(1H-indol-5-yl)-1-methyl-6-oxo-1,6-dihydro-pyrimidin-4-yl]-2-fluoro-benzonitrile] | < 100
Cn1c(N2CCC(N)CC2)nc(-c2ccc(C#N)c(F)c2)c(-c2ccc3ccn(C)c3c2)c1=O [Example 76, 4-[2-(4-amino-piperidin-1-yl)-1-methyl-5-(1-methyl-1H-indol-6-yl)-6-oxo-1,6-dihydro-pyrimidin-4-yl]-2-fluoro-benzonitrile] | < 100
Cn1c(N2CCC(N)CC2)nc(-c2ccc(C#N)c(F)c2)c(-c2ccc3cn[nH]c3c2)c1=O [Example 77, 4-[2-(4-amino-piperidin-1-yl)-5-(1H-indazol-6-yl)-1-methyl-6-oxo-1,6-dihydro-pyrimidin-4-yl]-2-fluoro-benzonitrile] | < 100
